From ChEMBL document CHEMBL2440083 (J Med Chem, 2013)
pEC50, pIC50: −log10 of the molar value.

Legend:
Mu-type opioid receptor [1] = molecular target: T1, Mu-type opioid receptor (Homo sapiens, UniProt P35372); assay: Agonist activity at human mu opioid receptor expressed in HEK293 cells assessed as inhibition of forskolin-stimulated cAMP accumulation by fluorescence assay; type: functional, cell-based
[2] = Cardiotoxicity in isolated rabbit left ventricular wedge model assessed as torsade de pointes score at 0.3 to 1 uM; type: toxicity, tissue-based, Oryctolagus cuniculus, Heart left ventricle
[3] = Cardiotoxicity in isolated rabbit left ventricular wedge model assessed as increase in QT interval at 1 uM; type: toxicity, tissue-based, Oryctolagus cuniculus, Heart left ventricle
[4] = Cardiotoxicity in isolated rabbit left ventricular wedge model assessed as increase in Tp-e interval at 1 uM; type: toxicity, tissue-based, Oryctolagus cuniculus, Heart left ventricle
[5] = molecular target: Voltage-dependent L-type calcium channel subunit alpha-1C (Homo sapiens, UniProt Q13936); assay: Inhibition of human Cav 1.2 ion channel expressed in HEK293 cells by whole-cell patch clamp technique; type: cell-based
[6] = molecular target: T2, Sodium channel protein type 5 subunit alpha (Homo sapiens, UniProt Q14524); assay: Inhibition of human Nav 1.5 tonic ion channel expressed in HEK293 cells by whole-cell patch clamp technique; type: cell-based
T2 sequence (Q14524 whole entry): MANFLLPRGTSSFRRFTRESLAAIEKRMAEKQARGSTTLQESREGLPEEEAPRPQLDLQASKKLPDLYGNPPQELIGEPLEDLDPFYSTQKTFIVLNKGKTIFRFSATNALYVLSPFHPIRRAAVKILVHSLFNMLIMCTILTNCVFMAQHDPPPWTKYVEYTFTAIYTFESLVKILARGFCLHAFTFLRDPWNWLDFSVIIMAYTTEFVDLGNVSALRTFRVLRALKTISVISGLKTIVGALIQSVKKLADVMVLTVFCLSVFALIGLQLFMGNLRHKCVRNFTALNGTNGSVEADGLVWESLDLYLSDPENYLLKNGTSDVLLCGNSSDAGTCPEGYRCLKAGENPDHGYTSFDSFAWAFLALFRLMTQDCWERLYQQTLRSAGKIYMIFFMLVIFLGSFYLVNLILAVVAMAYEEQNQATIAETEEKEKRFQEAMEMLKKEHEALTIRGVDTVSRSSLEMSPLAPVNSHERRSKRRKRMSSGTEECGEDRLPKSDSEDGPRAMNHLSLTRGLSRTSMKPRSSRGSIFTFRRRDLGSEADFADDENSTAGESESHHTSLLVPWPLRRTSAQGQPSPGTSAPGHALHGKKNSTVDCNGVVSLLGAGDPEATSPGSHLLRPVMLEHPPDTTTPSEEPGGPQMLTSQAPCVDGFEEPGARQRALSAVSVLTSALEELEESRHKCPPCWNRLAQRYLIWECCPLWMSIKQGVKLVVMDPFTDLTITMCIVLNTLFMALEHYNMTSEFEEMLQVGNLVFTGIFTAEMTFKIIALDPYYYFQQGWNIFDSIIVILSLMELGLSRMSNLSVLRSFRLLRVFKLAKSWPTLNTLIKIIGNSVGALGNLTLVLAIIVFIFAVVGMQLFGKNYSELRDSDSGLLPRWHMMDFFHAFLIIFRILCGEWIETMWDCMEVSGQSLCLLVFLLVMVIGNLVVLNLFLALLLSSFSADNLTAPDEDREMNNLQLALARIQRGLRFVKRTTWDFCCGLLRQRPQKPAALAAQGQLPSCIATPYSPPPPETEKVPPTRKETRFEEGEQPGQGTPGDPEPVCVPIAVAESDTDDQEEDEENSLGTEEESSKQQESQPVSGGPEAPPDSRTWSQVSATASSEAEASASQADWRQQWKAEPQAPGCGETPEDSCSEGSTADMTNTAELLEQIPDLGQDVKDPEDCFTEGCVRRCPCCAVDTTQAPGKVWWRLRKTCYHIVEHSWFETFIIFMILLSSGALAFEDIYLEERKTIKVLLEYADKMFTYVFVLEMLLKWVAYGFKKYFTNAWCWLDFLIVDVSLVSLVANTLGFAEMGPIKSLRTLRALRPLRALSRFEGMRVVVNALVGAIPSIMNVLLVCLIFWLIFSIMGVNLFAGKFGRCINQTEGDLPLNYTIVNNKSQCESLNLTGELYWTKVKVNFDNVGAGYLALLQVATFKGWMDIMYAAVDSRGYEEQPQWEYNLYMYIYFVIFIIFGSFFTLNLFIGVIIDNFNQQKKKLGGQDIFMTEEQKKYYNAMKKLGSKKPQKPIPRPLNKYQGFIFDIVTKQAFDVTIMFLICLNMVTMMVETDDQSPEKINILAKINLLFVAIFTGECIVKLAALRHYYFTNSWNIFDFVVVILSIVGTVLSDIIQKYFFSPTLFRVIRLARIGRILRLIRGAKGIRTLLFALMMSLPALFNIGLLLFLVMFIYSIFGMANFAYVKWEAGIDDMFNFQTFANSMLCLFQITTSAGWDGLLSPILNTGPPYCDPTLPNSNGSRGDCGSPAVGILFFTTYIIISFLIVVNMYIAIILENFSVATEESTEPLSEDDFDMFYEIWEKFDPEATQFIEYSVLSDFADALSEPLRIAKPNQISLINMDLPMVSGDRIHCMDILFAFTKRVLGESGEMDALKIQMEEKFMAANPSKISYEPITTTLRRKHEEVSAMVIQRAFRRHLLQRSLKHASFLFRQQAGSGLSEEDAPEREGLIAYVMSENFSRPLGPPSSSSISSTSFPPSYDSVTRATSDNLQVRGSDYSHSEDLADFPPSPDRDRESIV

[7] = molecular target: T2, Sodium channel protein type 5 subunit alpha; assay: Inhibition of human Nav 1.5 phasic ion channel expressed in HEK293 cells by whole-cell patch clamp technique; type: cell-based
[8] = molecular target: Voltage-gated inwardly rectifying potassium channel KCNH2 (Homo sapiens, UniProt Q12809); assay: Inhibition of human ERG channel expressed in HEK293 cells by whole-cell patch clamp technique; type: cell-based
Voltage-gated inwardly rectifying potassium channel KCNH2, sequence (Q12809 whole entry): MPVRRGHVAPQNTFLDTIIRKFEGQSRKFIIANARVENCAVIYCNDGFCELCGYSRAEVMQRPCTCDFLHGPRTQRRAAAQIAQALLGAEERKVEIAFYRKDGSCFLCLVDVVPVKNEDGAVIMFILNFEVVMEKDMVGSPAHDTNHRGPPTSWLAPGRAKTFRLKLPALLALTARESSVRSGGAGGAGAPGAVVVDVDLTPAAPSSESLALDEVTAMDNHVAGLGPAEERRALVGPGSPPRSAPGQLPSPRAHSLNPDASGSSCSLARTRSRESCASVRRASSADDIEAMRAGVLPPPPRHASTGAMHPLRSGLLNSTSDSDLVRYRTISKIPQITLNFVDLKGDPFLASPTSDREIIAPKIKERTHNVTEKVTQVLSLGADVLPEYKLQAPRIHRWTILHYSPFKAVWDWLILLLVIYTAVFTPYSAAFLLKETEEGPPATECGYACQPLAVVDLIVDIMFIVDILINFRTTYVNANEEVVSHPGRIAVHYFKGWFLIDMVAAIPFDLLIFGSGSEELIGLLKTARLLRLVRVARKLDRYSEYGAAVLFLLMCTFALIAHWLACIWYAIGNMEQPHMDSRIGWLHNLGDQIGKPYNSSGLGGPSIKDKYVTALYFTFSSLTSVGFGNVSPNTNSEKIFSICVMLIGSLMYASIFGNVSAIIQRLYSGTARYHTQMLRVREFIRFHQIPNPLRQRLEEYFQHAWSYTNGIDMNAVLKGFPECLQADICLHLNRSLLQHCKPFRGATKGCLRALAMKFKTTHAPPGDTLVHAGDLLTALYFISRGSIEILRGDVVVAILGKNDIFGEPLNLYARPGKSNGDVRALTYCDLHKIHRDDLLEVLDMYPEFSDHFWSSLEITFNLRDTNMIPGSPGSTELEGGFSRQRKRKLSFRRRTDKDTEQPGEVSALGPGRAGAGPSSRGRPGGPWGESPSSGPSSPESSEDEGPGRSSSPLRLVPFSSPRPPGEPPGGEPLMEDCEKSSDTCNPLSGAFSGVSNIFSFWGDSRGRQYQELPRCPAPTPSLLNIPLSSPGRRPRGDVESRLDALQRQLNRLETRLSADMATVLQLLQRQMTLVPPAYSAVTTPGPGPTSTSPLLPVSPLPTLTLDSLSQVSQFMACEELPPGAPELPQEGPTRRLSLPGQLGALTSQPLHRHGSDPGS

HEK293 [9] = assay: Selectivity ratio of EC50 for human mu opioid receptor expressed in HEK293 cells over EC50 for human delta opioid receptor expressed in HEK293 cells; type: cell-based
HEK293 [10] = assay: Selectivity ratio of EC50 for human mu opioid receptor expressed in HEK293 cells over EC50 for human kappa opioid receptor expressed in HEK293 cells; type: cell-based
[11] = molecular target: Delta-type opioid receptor (Homo sapiens, UniProt P41143); assay: Agonist activity at human delta opioid receptor expressed in HEK293 cells assessed as inhibition of forskolin-stimulated cAMP accumulation by fluorescence assay; type: functional, cell-based
Delta-type opioid receptor, sequence (P41143 whole entry): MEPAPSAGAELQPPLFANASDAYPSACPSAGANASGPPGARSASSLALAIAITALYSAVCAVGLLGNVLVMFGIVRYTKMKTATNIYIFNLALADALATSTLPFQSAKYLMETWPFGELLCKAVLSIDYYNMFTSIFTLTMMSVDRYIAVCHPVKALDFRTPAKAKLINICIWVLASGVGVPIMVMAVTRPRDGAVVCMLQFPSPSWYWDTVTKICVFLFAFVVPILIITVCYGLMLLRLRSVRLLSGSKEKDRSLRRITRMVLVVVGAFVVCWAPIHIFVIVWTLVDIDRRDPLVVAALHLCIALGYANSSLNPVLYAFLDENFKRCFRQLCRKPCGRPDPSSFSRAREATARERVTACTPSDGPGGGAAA

[12] = molecular target: Kappa-type opioid receptor (Homo sapiens, UniProt P41145); assay: Agonist activity at human kappa opioid receptor expressed in HEK293 cells assessed as inhibition of forskolin-stimulated cAMP accumulation by fluorescence assay; type: functional, cell-based
Kappa-type opioid receptor, sequence (P41145 whole entry): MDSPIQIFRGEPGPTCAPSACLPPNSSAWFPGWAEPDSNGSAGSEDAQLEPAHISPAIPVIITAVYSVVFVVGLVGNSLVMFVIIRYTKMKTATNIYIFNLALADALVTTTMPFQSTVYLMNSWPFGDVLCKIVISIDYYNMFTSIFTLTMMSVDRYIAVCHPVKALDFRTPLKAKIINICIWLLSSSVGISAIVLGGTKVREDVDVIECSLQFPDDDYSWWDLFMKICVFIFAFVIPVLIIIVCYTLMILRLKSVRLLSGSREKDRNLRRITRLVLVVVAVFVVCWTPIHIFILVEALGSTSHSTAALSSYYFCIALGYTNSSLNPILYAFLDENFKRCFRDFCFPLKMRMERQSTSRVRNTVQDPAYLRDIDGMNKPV

Mus musculus [13] = assay: Toxicity in mouse fecal boli accumulation model assessed as fecal boli production at equianalgesic dose, sc after 4 hrs relative to morphine; type: organism-based; settings: in vivo
Mus musculus [14] = assay: Toxicity in mouse glass bead model assessed as retention time of colonic motility at 3 mg/kg, sc; type: organism-based, Colon; parameters: dose 3 mg/kg, route subcutaneous; settings: in vivo
Mus musculus [15] = assay: Analgesic effect in mouse at 3 mg/kg, sc after 30 mins by hot plate assay; type: functional; settings: route subcutaneous
Mus musculus [16] = assay: Analgesic effect in sc dosed mouse by hot plate assay; type: functional
Mu-type opioid receptor [17] = molecular target: T1, Mu-type opioid receptor; assay: Agonist activity at human mu opioid receptor expressed in HEK293 cells assessed as beta-arrestin recruitment by chemiluminescence assay; type: cell-based
Mus musculus [18] = assay: Analgesic effect in mouse at 6 mg/kg, sc after 30 mins by hot plate assay; type: functional; settings: route subcutaneous
[19] = Cardiotoxicity in isolated rabbit left ventricular wedge model assessed as torsade de pointes score up to 30 uM; type: toxicity, tissue-based, Oryctolagus cuniculus, Heart left ventricle
[20] = Cardiotoxicity in isolated rabbit left ventricular wedge model assessed as proarrhyhmic event; type: toxicity, tissue-based, Oryctolagus cuniculus, Heart left ventricle
Cynomolgus monkey [21] = assay: Cardiotoxicity in cynomolgus monkey assessed as QT interval; type: toxicity, organism-based, Macaca fascicularis; settings: in vivo
Cynomolgus monkey [22] = assay: Cardiotoxicity in cynomolgus monkey assessed as QTc interval; type: toxicity, organism-based, Macaca fascicularis; settings: in vivo
Cynomolgus monkey [23] = assay: Cardiotoxicity in cynomolgus monkey assessed as PR interval; type: toxicity, organism-based, Macaca fascicularis; settings: in vivo
Cynomolgus monkey [24] = assay: Cardiotoxicity in cynomolgus monkey assessed as QRS duration; type: toxicity, organism-based, Macaca fascicularis; settings: in vivo
[25] = Cardiotoxicity in isolated rabbit left ventricular wedge model assessed as increase in QT interval at 0.3 uM; type: toxicity, tissue-based, Oryctolagus cuniculus, Heart left ventricle

T1 sequence (P35372 whole entry): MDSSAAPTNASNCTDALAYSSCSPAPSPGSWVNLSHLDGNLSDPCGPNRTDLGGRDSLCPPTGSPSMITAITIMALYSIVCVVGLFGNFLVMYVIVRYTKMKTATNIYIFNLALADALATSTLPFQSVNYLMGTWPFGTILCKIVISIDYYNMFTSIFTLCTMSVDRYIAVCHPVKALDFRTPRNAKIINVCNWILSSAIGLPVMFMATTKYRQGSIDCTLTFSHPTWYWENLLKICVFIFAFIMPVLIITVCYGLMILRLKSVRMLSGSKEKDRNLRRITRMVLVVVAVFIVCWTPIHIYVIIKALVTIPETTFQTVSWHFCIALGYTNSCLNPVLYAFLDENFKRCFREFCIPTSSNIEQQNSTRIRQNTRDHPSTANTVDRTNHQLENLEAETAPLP

Structure (SMILES): c1ccc(CNCC[C@@]2(c3ccccn3)CCOC3(CCCC3)C2)nc1
- pEC50 (Mu-type opioid receptor [1]): 6.80

Structure (SMILES): c1ccc([C@]2(CCNCc3cccs3)CCOC3(CCCC3)C2)nc1
- Activity [2]: Toxic
- Activity [3]: 40%
- Activity [4]: 65%
- pIC50 [5]: < 4.00
- pIC50 [6]: 4.70
- pIC50 [7]: 5.05
- pIC50 [8]: 5.64
- Ratio EC50 (HEK293 [9]): 56
- Ratio EC50 (HEK293 [10]): 71
- pEC50 [11]: 6.12
- pEC50 [12]: 6.05
- fold change (FC) (Mus musculus [13]): 2
- Retention_time (Mus musculus [14]): 65 min
- MPE (Mus musculus [15]): 79%
- ED50 (Mus musculus [16]): 1.1 mg/kg
- pEC50 (Mu-type opioid receptor [17]): 6.60
- pEC50 (Mu-type opioid receptor [1]): 7.80

Structure (SMILES): Clc1ccccc1CNCC[C@@]1(c2ccccn2)CCOC2(CCCC2)C1
- pEC50 (Mu-type opioid receptor [1]): 8.00

Structure (SMILES): Cc1ccc(CNCC[C@@]2(c3ccccn3)CCOC3(CCCC3)C2)o1
- pEC50 (Mu-type opioid receptor [17]): 6.70
- pEC50 (Mu-type opioid receptor [1]): 7.30

Structure (SMILES): c1ccc([C@]2(CCNCc3ccsc3)CCOC3(CCCC3)C2)nc1
- pEC50 (Mu-type opioid receptor [17]): 7.20
- pEC50 (Mu-type opioid receptor [1]): 7.90

Structure (SMILES): Fc1ccc(C2(CCNCc3ccccc3)CCOC3(CCCCC3)C2)cc1 (stereo not drawn)
- pEC50 (Mu-type opioid receptor [17]): 5.10
- pEC50 (Mu-type opioid receptor [1]): 6.40

Structure (SMILES): Cc1cc(CNCC[C@@]2(c3ccccn3)CCOC3(CCCC3)C2)sc1C
- pEC50 (Mu-type opioid receptor [17]): 6.30
- pEC50 (Mu-type opioid receptor [1]): 8.30

Structure (SMILES): c1ccc(CNCC[C@]2(c3ccccn3)CCOC3(CCCC3)C2)cc1
- pEC50 (Mu-type opioid receptor [17]): 4.80
- pEC50 (Mu-type opioid receptor [1]): 6.20

Structure (SMILES): Cc1cc(C)c(CNCC[C@@]2(c3ccccn3)CCOC3(CCCC3)C2)s1
- pEC50 (Mu-type opioid receptor [17]): 6.20
- pEC50 (Mu-type opioid receptor [1]): 7.60

Structure (SMILES): C[C@H](NCC[C@@]1(c2ccc(F)cc2)CCOC2(CCCC2)C1)c1ccccc1
- pEC50 (Mu-type opioid receptor [1]): 6.30

Structure (SMILES): CCC1(CC)CC(CCNCc2ccccc2)(c2ccc(F)cc2)CCO1 (stereo not drawn)
- pEC50 (Mu-type opioid receptor [17]): 5.20
- pEC50 (Mu-type opioid receptor [1]): 6.60

Structure (SMILES): CC[C@]1(C)CC(CCNCc2ccccc2O)(c2ccc(C)cc2)CCO1 (stereo partly drawn)
- pEC50 (Mu-type opioid receptor [17]): 5.70
- pEC50 (Mu-type opioid receptor [1]): 6.30

Structure (SMILES): Clc1cccc(CNCC[C@@]2(c3ccccn3)CCOC3(CCCC3)C2)c1
- pEC50 (Mu-type opioid receptor [17]): 7.30
- pEC50 (Mu-type opioid receptor [1]): 8.60

Structure (SMILES): c1ccc(CNCCC2(c3ccccn3)CCOC3(CCCC3)C2)cc1 (racemic)
- pEC50 (Mu-type opioid receptor [17]): 6.70
- pEC50 (Mu-type opioid receptor [1]): 7.30

Structure (SMILES): C[C@@H](NCC[C@@]1(c2ccc(F)cc2)CCOC2(CCCC2)C1)c1ccccc1
- pEC50 (Mu-type opioid receptor [1]): 6.00

Structure (SMILES): Cc1cc(CNCC[C@@]2(c3ccccn3)CCOC3(CCCC3)C2)oc1C
- pEC50 (Mu-type opioid receptor [17]): 6.50
- pEC50 (Mu-type opioid receptor [1]): 7.50

Structure (SMILES): c1ccc([C@]2(CCNCc3ccc4ccccc4c3)CCOC3(CCCC3)C2)nc1
- pEC50 (Mu-type opioid receptor [17]): 4.70
- pEC50 (Mu-type opioid receptor [1]): 6.80

Structure (SMILES): Cc1ccc(CNCC[C@@]2(c3ccccn3)CCOC3(CCCC3)C2)s1
- pEC50 (Mu-type opioid receptor [1]): 7.80

Structure (SMILES): c1ccc([C@]2(CCNCc3cnccn3)CCOC3(CCCC3)C2)nc1
- pEC50 (Mu-type opioid receptor [1]): 6.20

Structure (SMILES): Fc1ccc([C@@]2(CCNCc3ccccc3)CCOC3(CCCC3)C2)cc1
- pEC50 (Mu-type opioid receptor [17]): 5.10
- pEC50 (Mu-type opioid receptor [1]): 6.30

Structure (SMILES): c1ccc([C@]2(CCNCC3CCCC3)CCOC3(CCCC3)C2)nc1
- pEC50 (Mu-type opioid receptor [1]): 7.50

Structure (SMILES): CN1CC[C@]23c4c5ccc(O)c4O[C@H]2[C@@H](O)C=C[C@H]3[C@H]1C5 [MORPHINE]
- MPE (Mus musculus [18]): 69%

Structure (SMILES): CC[C@]1(C)CC(CCNCc2ccccc2O)(c2ccc(F)cc2)CCO1 (stereo partly drawn)
- pEC50 (Mu-type opioid receptor [17]): 5.80
- pEC50 (Mu-type opioid receptor [1]): 7.40

Structure (SMILES): Fc1ccc([C@]2(CCNCc3ccccc3)CCOC3(CCCC3)C2)cc1
- pEC50 (Mu-type opioid receptor [17]): 6.40
- pEC50 (Mu-type opioid receptor [1]): 7.50

Structure (SMILES): c1ccc(CNCC[C@@]2(c3ccccn3)CCOC3(CCCC3)C2)cc1
- pEC50 (Mu-type opioid receptor [17]): 6.80
- pEC50 (Mu-type opioid receptor [1]): 7.90

Structure (SMILES): c1ccc([C@]2(CCNCc3ccncn3)CCOC3(CCCC3)C2)nc1
- pEC50 (Mu-type opioid receptor [17]): 5.70
- pEC50 (Mu-type opioid receptor [1]): 6.10

Structure (SMILES): Cc1ccc(C2(CCNCc3ccccc3O)CCOCC2)cc1
- pEC50 (Mu-type opioid receptor [1]): 5.00

Structure (SMILES): COc1ccsc1CNCC[C@@]1(c2ccccn2)CCOC2(CCCC2)C1 [OLICERIDINE]
- Activity [19]: Non-toxic
- Activity [20]: Non-toxic
- Activity (Cynomolgus monkey [21]): Non-toxic
- Activity (Cynomolgus monkey [22]): Non-toxic
- Activity (Cynomolgus monkey [23]): Non-toxic
- Activity (Cynomolgus monkey [24]): Non-toxic
- Activity [4]: 7%
- Activity [25]: 3%
- pIC50 [5]: 4.44
- pIC50 [6]: 4.78
- pIC50 [7]: 5.33
- pIC50 [8]: 5.21
- pEC50 [11]: 5.55
- pEC50 [12]: 5.85

Structure (SMILES): c1ccc([C@]2(CCNCc3ccncc3)CCOC3(CCCC3)C2)nc1
- pEC50 (Mu-type opioid receptor [1]): 5.90

Structure (SMILES): CC(C)(NCC[C@@]1(c2ccc(F)cc2)CCOC2(CCCC2)C1)c1ccccc1
- pEC50 (Mu-type opioid receptor [1]): 5.50

Structure (SMILES): Cc1csc(CNCC[C@@]2(c3ccccn3)CCOC3(CCCC3)C2)c1
- pEC50 (Mu-type opioid receptor [17]): 6.40
- pEC50 (Mu-type opioid receptor [1]): 8.30

Structure (SMILES): c1ccc([C@]2(CCNCc3cccnc3)CCOC3(CCCC3)C2)nc1
- pEC50 (Mu-type opioid receptor [1]): 6.70

Structure (SMILES): Cc1ccsc1CNCC[C@@]1(c2ccccn2)CCOC2(CCCC2)C1
- pEC50 (Mu-type opioid receptor [1]): 8.20

Structure (SMILES): Fc1ccc(C2(CCNCc3ccccc3)CCOC3(CCCC3)C2)cc1 (racemic)
- pEC50 (Mu-type opioid receptor [17]): 6.20
- pEC50 (Mu-type opioid receptor [1]): 7.10

Structure (SMILES): CC1(C)CC(CCNCc2ccccc2)(c2ccc(F)cc2)CCO1 (stereo not drawn)
- pEC50 (Mu-type opioid receptor [1]): 5.80
